ChEMBL document CHEMBL1201862, “PubChem BioAssay data set” (2004)
Blank lines part the entries; values can stand above or below the compound they belong to. Active and inactive are the calls of the source. Unless noted, the calls are words filed in the database; no cut-off is given here.

Key:
[1] = target: T1, E3 ubiquitin-protein ligase XIAP (Homo sapiens, UniProt P98170); assay: SAR analysis of Antagonists of XIAP-Bir3 domain of IAP-family anti-apoptotic proteins. [Related pubchem assays (depositor defined):AID1018, AID1449, AID1513, AID1514, AID1638]
T1 sequence (P98170 whole entry, the tested form may be a part): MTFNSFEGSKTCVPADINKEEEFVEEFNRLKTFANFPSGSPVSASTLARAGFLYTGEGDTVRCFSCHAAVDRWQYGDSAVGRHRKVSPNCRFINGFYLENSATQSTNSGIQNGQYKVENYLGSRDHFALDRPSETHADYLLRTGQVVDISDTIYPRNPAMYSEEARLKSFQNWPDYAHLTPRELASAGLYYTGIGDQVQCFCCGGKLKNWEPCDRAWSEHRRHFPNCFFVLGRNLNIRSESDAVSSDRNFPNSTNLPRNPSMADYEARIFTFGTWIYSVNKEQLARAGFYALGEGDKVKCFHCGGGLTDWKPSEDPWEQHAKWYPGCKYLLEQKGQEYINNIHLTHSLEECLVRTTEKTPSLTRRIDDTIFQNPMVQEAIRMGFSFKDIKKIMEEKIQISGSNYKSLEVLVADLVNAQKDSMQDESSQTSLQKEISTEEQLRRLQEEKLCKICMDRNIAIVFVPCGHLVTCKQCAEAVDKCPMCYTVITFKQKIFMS

[2] = target: T1, E3 ubiquitin-protein ligase XIAP; assay: SAR analysis of Antagonists of IAP-family anti-apoptotic proteins. [Related pubchem assays (depositor defined):AID1018, AID1449, AID1513, AID1514, AID1638]
[3] = target: T2, Tyrosine-protein phosphatase non-receptor type 22 (Homo sapiens, UniProt Q9Y2R2); assay: SAR LYP1 Fluorescent Assay using pCAP substrate for In Vitro dose response studies - Set 2. [Related pubchem assays (depositor defined):AID1779, AID1784, AID2135, AID449727]; assay type: functional
T2 sequence (Q9Y2R2 whole entry): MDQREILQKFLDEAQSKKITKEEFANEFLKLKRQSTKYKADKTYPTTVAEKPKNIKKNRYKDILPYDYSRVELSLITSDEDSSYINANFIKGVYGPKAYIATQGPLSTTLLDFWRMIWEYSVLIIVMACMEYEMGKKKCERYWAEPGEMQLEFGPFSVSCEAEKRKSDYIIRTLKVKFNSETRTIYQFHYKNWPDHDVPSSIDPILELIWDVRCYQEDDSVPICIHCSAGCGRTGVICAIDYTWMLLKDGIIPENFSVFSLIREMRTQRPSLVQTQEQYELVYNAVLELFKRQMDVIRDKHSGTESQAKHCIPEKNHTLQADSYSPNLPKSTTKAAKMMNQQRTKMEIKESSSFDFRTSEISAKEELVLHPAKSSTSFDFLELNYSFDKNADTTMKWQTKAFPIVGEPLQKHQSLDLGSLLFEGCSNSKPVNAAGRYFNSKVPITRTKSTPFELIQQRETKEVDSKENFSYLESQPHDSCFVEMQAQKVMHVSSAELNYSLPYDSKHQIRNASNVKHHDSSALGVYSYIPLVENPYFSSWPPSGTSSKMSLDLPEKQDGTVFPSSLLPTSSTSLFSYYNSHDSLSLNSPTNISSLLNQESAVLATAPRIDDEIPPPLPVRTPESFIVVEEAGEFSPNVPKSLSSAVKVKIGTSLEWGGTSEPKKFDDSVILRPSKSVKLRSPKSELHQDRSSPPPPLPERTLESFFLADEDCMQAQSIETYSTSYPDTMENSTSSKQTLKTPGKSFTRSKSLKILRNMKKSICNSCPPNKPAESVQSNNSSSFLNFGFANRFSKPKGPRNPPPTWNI

[4] = target: Tyrosine-protein phosphatase non-receptor type 12 (Homo sapiens, UniProt Q05209); assay: SAR Selectivity Analysis of small molecule inhibitors of PEST using pCAP in a fluorescence assay. [Related pubchem assays (depositor defined):AID1779, AID1784, AID2135]; assay type: functional
Chain of Tyrosine-protein phosphatase non-receptor type 12 (Q05209 whole entry): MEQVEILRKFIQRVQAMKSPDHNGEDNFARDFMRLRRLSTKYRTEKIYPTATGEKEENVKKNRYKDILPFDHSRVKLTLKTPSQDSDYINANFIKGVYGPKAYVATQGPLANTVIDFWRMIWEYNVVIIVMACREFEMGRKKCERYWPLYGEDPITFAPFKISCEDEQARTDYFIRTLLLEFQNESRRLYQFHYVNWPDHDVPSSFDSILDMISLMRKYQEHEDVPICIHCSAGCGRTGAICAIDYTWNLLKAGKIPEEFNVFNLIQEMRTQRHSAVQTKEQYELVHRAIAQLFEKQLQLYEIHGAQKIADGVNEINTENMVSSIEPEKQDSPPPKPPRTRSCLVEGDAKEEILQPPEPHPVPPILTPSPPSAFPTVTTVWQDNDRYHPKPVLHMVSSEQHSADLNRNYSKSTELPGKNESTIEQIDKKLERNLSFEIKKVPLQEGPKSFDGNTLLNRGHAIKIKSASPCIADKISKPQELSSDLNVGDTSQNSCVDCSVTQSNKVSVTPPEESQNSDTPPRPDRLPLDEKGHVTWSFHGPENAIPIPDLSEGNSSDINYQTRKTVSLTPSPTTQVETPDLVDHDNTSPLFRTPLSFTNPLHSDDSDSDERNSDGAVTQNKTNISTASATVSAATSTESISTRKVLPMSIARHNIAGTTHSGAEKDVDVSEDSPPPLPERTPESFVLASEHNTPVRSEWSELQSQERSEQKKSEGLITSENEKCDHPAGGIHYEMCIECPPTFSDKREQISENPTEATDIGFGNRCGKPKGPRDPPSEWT

[5] = target: T2, Tyrosine-protein phosphatase non-receptor type 22; assay: SAR LYP1 Fluorescent Assay using OMFP substrate for In Vitro dose response studies - Set 3. [Related pubchem assays (depositor defined):AID1779, AID1784, AID2140, AID2686]; assay type: functional
[6] = target: T3, Tyrosine-protein phosphatase non-receptor type 7 (Homo sapiens, UniProt P35236); assay: HePTP (PTPN7) phosphatase inhibitor potency, SAR follow-up, biochemical, set 2 (AID 449736); assay type: functional
T3 sequence (P35236 whole entry): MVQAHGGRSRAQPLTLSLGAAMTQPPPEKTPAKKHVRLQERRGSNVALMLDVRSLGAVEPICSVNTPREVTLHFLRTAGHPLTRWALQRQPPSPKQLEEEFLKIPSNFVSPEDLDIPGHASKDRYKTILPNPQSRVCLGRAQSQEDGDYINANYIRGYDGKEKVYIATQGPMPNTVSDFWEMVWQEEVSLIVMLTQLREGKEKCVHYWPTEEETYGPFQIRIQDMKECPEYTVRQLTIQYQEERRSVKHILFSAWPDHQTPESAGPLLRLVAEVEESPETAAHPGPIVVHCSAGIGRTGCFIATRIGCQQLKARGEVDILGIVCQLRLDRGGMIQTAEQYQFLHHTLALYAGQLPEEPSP

[7] = target: T2, Tyrosine-protein phosphatase non-receptor type 22; assay: LYP (PTPN22) phosphatase inhibitor potency, SAR follow-up, biochemical, pCAP fluorogenic substrate, fluorescence, set 3 (AID 449727); assay type: functional
[8] = target: T2, Tyrosine-protein phosphatase non-receptor type 22; assay: PubChem AID 2135
[9] = target: T2, Tyrosine-protein phosphatase non-receptor type 22; assay: PubChem AID 2140
[10] = target: T2, Tyrosine-protein phosphatase non-receptor type 22; assay: SAR LYP1 Fluorescent Assay using OMFP substrate for In Vitro dose response studies - Set 2. [Related pubchem assays (depositor defined):AID1779, AID1784, AID2140, AID449726, AID488869]; assay type: functional
[11] = target: T4, Kappa-type opioid receptor (Homo sapiens, UniProt P41145); assay: SAR analysis of small molecule antagonists of the kappa opioid receptor via a luminescent beta-arrestin assay - Set 4. [Related pubchem assays (depositor defined):AID1777, AID1778, AID1785, AID1786, AID1966, AID2133, AID2136, AID2285]; assay type: functional
T4 sequence (P41145 whole entry): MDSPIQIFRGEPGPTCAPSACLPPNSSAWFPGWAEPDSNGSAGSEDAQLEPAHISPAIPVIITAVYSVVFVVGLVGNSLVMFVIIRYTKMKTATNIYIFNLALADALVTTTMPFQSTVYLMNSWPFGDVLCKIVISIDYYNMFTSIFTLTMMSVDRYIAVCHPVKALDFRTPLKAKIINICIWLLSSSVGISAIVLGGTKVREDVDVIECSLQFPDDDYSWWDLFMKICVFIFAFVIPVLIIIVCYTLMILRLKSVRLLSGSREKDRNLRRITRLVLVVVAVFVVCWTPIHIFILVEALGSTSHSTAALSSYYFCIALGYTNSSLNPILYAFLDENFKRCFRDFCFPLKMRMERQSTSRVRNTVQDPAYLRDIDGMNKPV

[12] = target: T4, Kappa-type opioid receptor; assay: SAR analysis of small molecule antagonists of the kappa opioid receptor via a luminescent beta-arrestin assay - Set 5. [Related pubchem assays (depositor defined):AID1778, AID1785]; assay type: functional
[13] = target: Sphingosine 1-phosphate receptor 5 (Homo sapiens, UniProt Q9H228); assay: (§1) Late-stage fluorescence-based dose-response cell-based assay to identify agonists of the Sphingosine 1-Phosphate Receptor 4 (S1P4): Sphingosine 1-Phosphate Receptor 5 (S1P5) counterscreen assay. [Related pubchem assays (depositor defined):AID1509, AID1523, AID1563, AID1686, AID1701, AID1801, AID463107, AID463225, AID504400]; assay type: functional
Chain of Sphingosine 1-phosphate receptor 5 (Q9H228 whole entry): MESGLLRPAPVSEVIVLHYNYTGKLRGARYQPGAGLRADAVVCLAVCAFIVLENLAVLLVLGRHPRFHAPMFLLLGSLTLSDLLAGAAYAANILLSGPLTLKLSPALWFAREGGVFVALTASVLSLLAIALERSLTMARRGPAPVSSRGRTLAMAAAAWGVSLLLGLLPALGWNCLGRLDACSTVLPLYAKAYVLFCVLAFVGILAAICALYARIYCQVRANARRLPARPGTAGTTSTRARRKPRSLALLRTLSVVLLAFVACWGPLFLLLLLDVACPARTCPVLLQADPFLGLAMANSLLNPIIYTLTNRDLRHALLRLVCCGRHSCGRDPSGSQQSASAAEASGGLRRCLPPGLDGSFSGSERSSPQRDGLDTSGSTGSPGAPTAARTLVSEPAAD

[14] = target: Sphingosine 1-phosphate receptor 1 (Homo sapiens, UniProt P21453); assay: as §1, with “1 (S1P1)” for “5 (S1P5)”; assay type: functional
Chain of Sphingosine 1-phosphate receptor 1 (P21453 whole entry): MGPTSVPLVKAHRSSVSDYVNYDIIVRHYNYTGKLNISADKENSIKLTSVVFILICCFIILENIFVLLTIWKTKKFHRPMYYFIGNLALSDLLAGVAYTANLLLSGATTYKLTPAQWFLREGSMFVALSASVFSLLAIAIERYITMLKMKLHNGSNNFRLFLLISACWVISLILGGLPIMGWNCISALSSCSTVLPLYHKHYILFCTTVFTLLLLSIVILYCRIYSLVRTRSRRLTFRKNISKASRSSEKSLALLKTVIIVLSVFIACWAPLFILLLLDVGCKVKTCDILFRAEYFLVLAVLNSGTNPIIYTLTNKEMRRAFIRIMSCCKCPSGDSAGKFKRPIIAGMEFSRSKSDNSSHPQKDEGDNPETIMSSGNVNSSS

[15] = target: Sphingosine 1-phosphate receptor 2 (Homo sapiens, UniProt O95136); assay: as §1, with “2 (S1P2)” for “5 (S1P5)”; assay type: functional
Chain of Sphingosine 1-phosphate receptor 2 (O95136 whole entry): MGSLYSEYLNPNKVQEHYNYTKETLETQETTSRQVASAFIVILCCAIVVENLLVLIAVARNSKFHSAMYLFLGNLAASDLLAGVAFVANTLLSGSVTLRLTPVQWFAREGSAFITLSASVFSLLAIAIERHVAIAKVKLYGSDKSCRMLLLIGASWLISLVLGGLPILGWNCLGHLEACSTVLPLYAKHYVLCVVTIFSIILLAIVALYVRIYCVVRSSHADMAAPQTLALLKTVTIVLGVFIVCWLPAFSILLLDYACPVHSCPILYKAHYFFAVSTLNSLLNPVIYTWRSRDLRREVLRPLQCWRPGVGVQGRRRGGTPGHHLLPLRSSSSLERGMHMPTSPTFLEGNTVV

[16] = target: Sphingosine 1-phosphate receptor 3 (Homo sapiens, UniProt Q99500); assay: as §1, with “3 (S1P3)” for “5 (S1P5)”; assay type: functional
Chain of Sphingosine 1-phosphate receptor 3 (Q99500 whole entry): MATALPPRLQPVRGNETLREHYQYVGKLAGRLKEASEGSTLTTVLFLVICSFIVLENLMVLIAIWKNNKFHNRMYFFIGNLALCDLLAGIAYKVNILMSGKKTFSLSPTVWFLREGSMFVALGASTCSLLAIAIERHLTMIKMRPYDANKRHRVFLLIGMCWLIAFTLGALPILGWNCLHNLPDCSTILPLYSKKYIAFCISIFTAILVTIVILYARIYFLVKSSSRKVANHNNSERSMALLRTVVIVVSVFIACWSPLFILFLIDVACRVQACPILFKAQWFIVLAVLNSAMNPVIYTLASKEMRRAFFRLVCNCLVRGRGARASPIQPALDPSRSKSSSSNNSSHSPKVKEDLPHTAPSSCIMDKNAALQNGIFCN

[17] = target: T5, Delta-type opioid receptor (Homo sapiens, UniProt P41143); assay: HTS Image-Based Screen for Antagonists of the DOR Receptor. [Related pubchem assays (depositor defined):AID1777, AID1785, AID1786, AID2133]; assay type: functional
T5 sequence (P41143 whole entry): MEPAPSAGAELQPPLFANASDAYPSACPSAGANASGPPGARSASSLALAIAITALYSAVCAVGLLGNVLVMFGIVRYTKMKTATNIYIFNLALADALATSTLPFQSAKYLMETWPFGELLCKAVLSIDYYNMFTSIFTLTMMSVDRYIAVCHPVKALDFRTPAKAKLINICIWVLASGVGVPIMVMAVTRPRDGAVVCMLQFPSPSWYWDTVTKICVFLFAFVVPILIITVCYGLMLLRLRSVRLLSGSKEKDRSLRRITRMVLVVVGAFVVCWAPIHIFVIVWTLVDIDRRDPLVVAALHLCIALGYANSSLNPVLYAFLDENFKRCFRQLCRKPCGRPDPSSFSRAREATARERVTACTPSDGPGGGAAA

Mu-type opioid receptor = Mu-type opioid receptor (Homo sapiens, UniProt P35372); assay: HTS Image-Based Screen for Agonists of the MOR Receptor. [Related pubchem assays (depositor defined):AID1777, AID1785, AID1786, AID2133]; assay type: functional;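 further: imaging of beta-arrestin GFP recruitment into spots after receptor activation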
Chain of Mu-type opioid receptor (P35372 whole entry): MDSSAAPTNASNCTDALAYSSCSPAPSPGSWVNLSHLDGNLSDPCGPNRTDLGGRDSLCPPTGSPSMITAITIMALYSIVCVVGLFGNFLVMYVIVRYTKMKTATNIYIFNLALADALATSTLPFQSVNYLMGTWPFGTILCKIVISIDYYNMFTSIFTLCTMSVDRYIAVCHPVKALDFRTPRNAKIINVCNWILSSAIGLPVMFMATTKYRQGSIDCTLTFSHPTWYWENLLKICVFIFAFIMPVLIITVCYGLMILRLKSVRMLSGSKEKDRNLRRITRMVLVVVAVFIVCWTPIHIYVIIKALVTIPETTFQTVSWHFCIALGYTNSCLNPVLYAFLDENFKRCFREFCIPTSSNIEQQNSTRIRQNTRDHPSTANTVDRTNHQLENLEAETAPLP

[18] = target: T5, Delta-type opioid receptor; assay: HTS Image-Based Screen for Agonists of the DOR Receptor. [Related pubchem assays (depositor defined):AID1777, AID1786, AID2133]; assay type: functional
[19] = target: T4, Kappa-type opioid receptor; assay type: functional
[20] = target: T4, Kappa-type opioid receptor; assay type: functional; remark: listed apart in the source
[21] = target: T6, Short transient receptor potential channel 4 (Mus musculus, UniProt Q9QUQ5); assay: mouse TRPC4 channel inhibitors, dose response, cell-based, HEK293 TRPC4/mu-opioid, Fluo-4 calcium (AID 434942); assay type: functional;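 further: potency of inhibitors blocking the TRPC4 calcium response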
T6 sequence (Q9QUQ5 whole entry): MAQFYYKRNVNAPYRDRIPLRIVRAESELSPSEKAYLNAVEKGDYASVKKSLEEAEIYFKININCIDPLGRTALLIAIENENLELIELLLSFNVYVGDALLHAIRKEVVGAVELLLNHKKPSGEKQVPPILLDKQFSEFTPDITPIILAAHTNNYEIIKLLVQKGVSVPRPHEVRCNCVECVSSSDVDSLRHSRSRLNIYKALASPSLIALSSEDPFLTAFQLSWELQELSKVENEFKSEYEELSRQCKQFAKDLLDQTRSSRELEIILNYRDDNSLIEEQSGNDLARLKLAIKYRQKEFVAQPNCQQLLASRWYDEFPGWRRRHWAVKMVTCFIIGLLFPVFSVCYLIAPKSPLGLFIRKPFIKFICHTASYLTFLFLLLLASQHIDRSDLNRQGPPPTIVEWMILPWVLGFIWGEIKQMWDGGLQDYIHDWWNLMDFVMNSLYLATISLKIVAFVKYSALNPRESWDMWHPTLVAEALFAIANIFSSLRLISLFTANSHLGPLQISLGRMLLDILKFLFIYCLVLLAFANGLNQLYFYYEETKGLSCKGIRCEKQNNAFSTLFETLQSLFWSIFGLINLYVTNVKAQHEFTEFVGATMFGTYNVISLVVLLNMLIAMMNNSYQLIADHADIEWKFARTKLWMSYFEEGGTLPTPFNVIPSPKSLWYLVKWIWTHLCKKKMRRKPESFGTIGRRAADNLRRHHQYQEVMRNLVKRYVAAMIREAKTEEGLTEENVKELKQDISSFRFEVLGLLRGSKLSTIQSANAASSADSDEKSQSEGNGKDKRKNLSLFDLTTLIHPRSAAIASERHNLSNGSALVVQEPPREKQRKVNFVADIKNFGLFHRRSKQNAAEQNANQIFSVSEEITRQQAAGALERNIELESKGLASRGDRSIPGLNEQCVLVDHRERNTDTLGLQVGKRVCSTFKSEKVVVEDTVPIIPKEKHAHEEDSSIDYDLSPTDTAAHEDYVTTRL

IC50 [1]: > 100 µM (inactive)
IC50 [2]: > 100 µM (inactive)
Structure (SMILES): CN[C@@H](C)C(=O)NC1CCCN([C@@H](C)C(=O)Nc2ccc3ccccc3c2)C1=O (some centres not stated)

IC50 [3]: > 100 µM (inactive)
IC50 [4]: 17 µM (active)
IC50 [5]: > 100 µM (inactive)
IC50 [6]: 4.78 µM (active)
IC50 [7]: > 100 µM (inactive)
IC50 [8]: > 100 µM (inactive)
IC50 [9]: > 100 µM (inactive)
IC50 [10]: 99.1 µM (active)
Structure (SMILES): N#C/C(=C/c1ccc(OCc2cccc(C(=O)O)c2)c(Cl)c1)c1cccc(F)c1

Continued, compound first:

Structure (SMILES): Cc1ccc(N2CCN(CCCNC(=O)Cn3c(=O)c4cccn4c4cc(Br)cnc43)CC2)cc1
IC50 [11]: 9.68 µM (active)
IC50 [12]: 3.86 µM (active)

Structure (SMILES): FCc1ccc(OCCOc2ccc(Cl)cc2Cl)c(Cl)n1
EC50 [13]: > 50 µM (inactive)
EC50 [14]: > 50 µM (inactive)
EC50 [15]: > 50 µM (inactive)
EC50 [16]: > 50 µM (inactive)

Structure (SMILES): Cc1cccc(-n2ccnc2CN2CCC(CO)(Cc3ccccc3)CC2)c1
IC50 [17]: > 32 µM (inactive)
EC50 (Mu-type opioid receptor): > 32 µM (inactive)
EC50 [18]: > 32 µM (inactive)
EC50 [19]: 4.15 µM
EC50 [20]: 5.69 µM
EC50 [21]: 1.68 µM (active)
